{
  "source": "patent EP4608400B1",
  "about": "“COMPOUND FOR TREATMENT OF PAIN” (Initiator Pharma A/S, priority 2022, dated 2024)",
  "key": {"[1]": {"system": "formalin-induced flinching behaviour", "test": "Automated rat formalin test of persistent nociceptive pain", "type": "in vivo, Sprague-Dawley rats", "method": "All treatments were administered s.c. in a dosing volume of 2 ml/kg 60 min prior to formalin injection.\nAdult male Sprague-Dawley rats (Harlan Scandinavia, Alleroed, Denmark) were used. They were housed in Macrolon III cages (20 x 14 x 18 cm or 20 x 40 x18 cm; in groups of 2-5 per cage according to weight) containing wood-chip bedding material (3 x 1 x 4 mm). The environment was temperature (20 ± 2°C) and humidity (55 ± 15%) controlled and consisted of a light-dark cycle of 13:11 h (lights on at 06.00 h and off at 19.00 h). Food (Altromin®) and water were available ad libitum. The rats were allowed to habituate to the housing facilities for at least one week prior to being randomly assigned to behavioural experiments. At the end of each experiment rats were euthanized by cervical dislocation. All experiments were performed according to the Ethical Guidelines of the International Association for the Study of Pain (Zimmermann, 1983) and the Danish Committee for Experiments on Animals.\nAs highlighted in the Procedures section below 4 rats were included in each automated testing session. 4 individual treatments were assessed during the session and treatments were rotated to minimise bias associated with a particular testing chamber. […]\nAssessment of formalin-induced flinching behaviour in normal, uninjured rats (body weight 180-220 g) was made with the use of an Automated Nociception Analyser (University of California, San Diego, CA; Yaksh et al., 2001). […] They were then returned to their separate observation chambers, each of which were in turn situated upon an enclosed detection device consisting of two electromagnetic coils designed to produce an electromagnetic field in which movement of the metal band could be detected. […] In an initial formalin concentration response study, five phases of nociceptive behaviour were identified and scored according to Yaksh et al., (2001); first phase (P1=0-5 min), interphase (Int=6-15 min), early second phase (P2A=16-40 min), late second phase (P2B=41-60 min) and entire second phase (P2A+P2B=16-60 min). […]"}, "[2]": {"test": "Phase I ascending single oral dose study: safety and tolerability", "type": "in vivo, human", "method": "Study design. The study was a Phase I, randomised, double-blind, placebo-controlled, ascending single oral dose, safety, tolerability, pharmacokinetic (PK) and pharmacodynamics (PD) study of IP2015 in healthy male subjects.\nEach subject received one oral dose of IP2015 or matched placebo. […] The dose level was to be escalated to a maximum of 0.05 mg in Cohort 2 and a maximum of 0.2 mg in Cohort 3. The doses in the remaining five cohorts were to be determined based on the dose escalation criteria.\nThe randomisation schemes were generated by a statistician using SAS PROC Plan.\nThe doses used in each cohort were as follows: • Cohort 1 - 0.01 mg • Cohort 2 - 0.05 mg • Cohort 3 - 0.2 mg • Cohort 4 - 0.6 mg • Cohort 5 - 1.8 mg • Cohort 6 - 5.4 mg • Cohort 7 - 16.2 mg • Cohort 8 - 10 mg\nEvaluation. The study evaluated the clinical safety data from adverse event (AE) reporting, 12-lead electrocardiogram (ECG), cardiac telemetry, vital signs (standing and supine blood pressure (BP), heart rate (HR), oral temperature and clinical laboratory evaluations (chemistry, haematology, urinalysis) and physical examinations in healthy male subjects."}},
  "note": "Entries after “also recorded” stand apart in the source; their conditions may differ.",
  "data": [
    {"compound": "COc1cc2ccc(O[C@@H]3C[C@H]4CC[C@@H](C3)N4)cc2oc1=O", "note": "[IP2015, exo-7-[(8-azabicyclo[3.2.1]octan-3-yl)oxy]-3-methoxy-chromen-2-one]", "values": [
      {"measurement": "flinches in P1, interphase and P2", "setting": "[1]; 1, 3, 10, 30 mg/kg s.c., 60 min prior to 5% formalin", "result": "reduced the prevalence of flinches; also recorded: robust dose-dependent inhibition"},
      {"measurement": "observation in rats of the formalin test", "setting": "[1]; 10 or 30 mg/kg s.c., all rats", "result": "spontaneous erections and/or ejaculations"},
      {"measurement": "minimal effective dose", "setting": "[1]; s.c., especially during interphase and 2nd phase, stated as likely", "result": "< 3", "unit": "mg/kg"},
      {"measurement": "incidence of TEAEs", "setting": "[2]; 0.01 mg to 10 mg dose range", "result": "relatively low"},
      {"measurement": "mean ECG parameters", "setting": "[2]; 0.01 mg to 10 mg dose range", "result": "no significant treatment- or dose-related trends"},
      {"measurement": "vital sign values, mean or individual subject", "setting": "[2]; 0.01 mg to 10 mg dose range", "result": "no significant treatment- or dose-related trends"},
      {"measurement": "incidence of side effects compared to the 0.01 mg to 10 mg dose range", "setting": "[2]; 16.2 mg", "result": "increased"},
      {"measurement": "subjects with sustained tachycardia for several hours", "setting": "[2]; 16.2 mg", "result": 2, "unit": "subjects"},
      {"measurement": "subjects reporting at least one TEAE", "setting": "[2]; 16.2 mg dose group (all subjects of the group)", "result": 4, "unit": "subjects"},
      {"measurement": "standing pulse rate", "setting": "[2]; 16.2 mg, 2, 3, 4, 6, 8, 10 and 12 hours postdose", "result": "increases from baseline"},
      {"measurement": "supine pulse rate", "setting": "[2]; 16.2 mg, 6, 8 and 10 hours postdose", "result": "increases from baseline"},
      {"measurement": "heart rate (ECG)", "setting": "[2]; 16.2 mg, 8 and 12 hours postdose", "result": "increases from baseline"},
      {"measurement": "subjects experiencing TEAEs", "setting": "[2]; of the 40 subjects who received IP2015, all dose groups", "result": 16, "unit": "subjects"},
      {"measurement": "total TEAEs", "setting": "[2]; the 40 subjects who received IP2015, all dose groups", "result": 32, "unit": "TEAEs"}
    ]}
  ]
}
